This note sets out measurements from PubChem BioAssay (NCI).

Molecules are shown by their SMILES. Where “and” joins values, the source holds several entries; their conditions need not be identical. Equal entries are not always repeated.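 48-hour exposure; five concentrations; linearly interpolated endpoints. GI50 is the concentration that inhibits growth by half. Definition used: TGI = concentration required for complete inhibition of growth.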 Where only a bound is given, the exact number is not on record here.

Common to all, as to assay: inhibition of tumour cell growth, NCI panel, 48 h
For experiment [1], the system named is UACC-62 melanoma.
Experiment [2] concerns CCRF-CEM leukemia.
Experiment [3] deals with RXF 393 renal.
For experiment [4], the system named is KM20L2 colon.
The subject of experiment [5] is DLD-1 colon.
Experiment [6] concerns DMS 273 small cell lung.
Experiment [7] concerns PC-3 prostate.
The subject of experiment [8] is HS 578T breast.
In experiment [9] the test system is NCI/ADR-RES ovarian.
Experiment [10] deals with BT-549 breast.

As for `OCC(O)C(OC1OC(CO)C(O)C(O)C1O)c1nn(-c2ccccc2)c2nc3cc(Cl)c(Cl)cc3cc12` (stereo not drawn), the TGI in [1], in experiment [2], in experiment [3], in [4] and in experiment [5] was above 100 µM throughout.

On to `Cc1ccc(S(=O)(=O)NNC(=O)c2sc(-c3nc(C)c(C(=O)NNS(=O)(=O)c4ccc(C)cc4)s3)nc2C)cc1`, for which the TGI in experiment [1], in experiment [2], in experiment [3], in [4] and in [5] was above 100 µM throughout.

As for `O=C(O)C12C3C4C1C1C2C3C1(Br)C41OCCO1` (stereo not drawn), the TGI in [2], in [3], in experiment [4], in experiment [6] and in experiment [5] was above 100 µM in each case.

For the compound `NNC(=O)CCC(=O)Nc1cc(Cl)c(Cl)cc1Cl`, the TGI in experiment [1], in [2], in [3], in experiment [4], in [6] and in experiment [5] was above 100 µM throughout.

Turning to `COc1ccc(C2=NN(C(=O)COc3ccc(Cl)cc3)C(O)(c3ccc(Cl)cc3)C2)cc1` (stereo not drawn), the TGI in experiment [1], in [4], in [6] and in experiment [5] was above 100 µM throughout.

Turning to `N#C/C(=C1\NN=C(N)C(c2ccc(Cl)cc2)=C1O)c1ccc(Cl)cc1`, the TGI in experiment [1], in [2], in experiment [3], in experiment [4], in [6] and in experiment [5] was above 100 µM throughout.

`COC(=O)C1C2C=CC(C2)C1(C(=O)OC)S(=O)CC12CCC(CC1O)C2(C)C` (stereo not drawn): the TGI in experiment [1], in experiment [2], in experiment [3], in [4], in [6] and in experiment [5] was above 100 µM in each case.

As for `CCCCCCCCC(=O)N(C)C1C2CN3CCC(O2)C13` (stereo not drawn), the TGI in [1], in experiment [2], in [3], in [4], in [6] and in experiment [5] was above 100 µM throughout.

In the case of `Cc1cc(NC(=O)NC(=O)c2ccccc2N)ccc1Oc1ncc(Br)cn1`, the TGI was 1.75 µM in experiment [1]; above 100 µM in experiment [2]; 1.62 µM in [3]; 0.442 µM in experiment [4]; 6.15 µM in experiment [7]; above 47.9 µM in experiment [5].

`[C-]#[O+].[C-]#[O+].[C-]#[O+].[C-]#[O+].[Ir].[Ir].[O-]c1ccc2ccccc2c1C=Nc1ccc(N=Cc2c([O-])ccc3ccccc23)cc1`: the GI50 in experiment [1] was above 100 µM; in experiment [2] it was 66 µM; in experiment [3], above 100 µM; in experiment [4], 59.2 µM; in experiment [5], above 100 µM. The TGI in experiment [1], in [2], in experiment [3], in experiment [4] and in experiment [5] was above 100 µM each time.

Turning to `O/N=C/c1cc2c(cc1Br)OCO2`, the TGI in experiment [1], in experiment [2], in [4], in [6] and in experiment [5] was above 100 µM in each case.

On to `CC1CC(c2cccc3c2OCO3)=Nc2ccccc2S1` (stereo not drawn), for which the TGI in [1], in experiment [2], in experiment [3], in experiment [4], in experiment [6] and in [5] was above 100 µM in each case.

Turning to `O=C(O)CCSCCCN1C(=O)c2ccccc2C1=O`, the TGI in [1], in experiment [3] and in [4] was above 100 µM each time.

In the case of `COC(C(=O)C(O)C(C)O)C1Cc2cc3cc(OC4CC(OC(C)=O)C(OC5CC(O)C(OC)C(C)O5)C(C)O4)cc(O)c3c(O)c2C(=O)C1OC1CC(OC2CC(OC3CC(C)(O)C(OC(=O)C(C)C)C(C)O3)C(O)C(C)O2)C(O)C(C)O1` (stereo not drawn), the GI50 in experiment [1] is 0.00129 µM; in experiment [5], 0.298 µM and 0.0325 µM. For the same compound, the TGI in experiment [8] is 0.175 µM; in [9], 63.7 µM and > 100 µM; in experiment [5], 8.61 µM and > 27.3 µM; in experiment [10], 0.0444 µM.

With `O=c1c2cccc3cccc(c4oc5c6cccc7cccc(c(=O)c5c14)c76)c32`, the TGI was determined as 17.6 µM in experiment [1]; 22.1 µM in [2]; 16.6 µM in experiment [3]; 26.2 µM in experiment [4]; 17.9 µM in experiment [6]; 30.2 µM in [5].

With `O=c1c(Sc2c(O)c3ccccc3c3ccccc3c2=O)c(O)c2ccccc2c2ccccc12`, the TGI in [1] is above 100 µM; in experiment [2] it was 56.6 µM; in [3], above 100 µM; in experiment [4], above 100 µM; in [6] it was above 100 µM; in experiment [5], above 100 µM.

Take `O=C1C=C[C@@]23C[C@@H](Nc4c(O)c5c6c(c42)=NCCC=6C=N5)SC3=C1`: the GI50 was 1.64 µM in experiment [1]; 2.51 µM in [3]; 2.42 µM in experiment [6]; 3.75 µM in experiment [8]; 2.42 µM in [7]; 2.88 µM in [9]. Also, the GI50 in experiment [5] was 1.74 µM. For the same compound, the TGI in experiment [1] was 3.31 µM; in [2], above 27 µM; in [3] it was 8.81 µM; in experiment [4], 10.7 µM; in [6] it was 8.37 µM; in experiment [8], 19.8 µM. For the same compound, the TGI came out at 7.61 µM in experiment [7], 10.1 µM in experiment [9] and 3.22 µM in [5].

Take `CC(=O)Nc1ccc(/C=N\N2C(=O)c3ccccc3C2=O)cc1`: the TGI in experiment [1], in experiment [2], in [3], in [4], in experiment [6] and in experiment [5] was above 100 µM in each case.

With `Nc1c(Br)c(=O)[nH]c(=O)n1COCCO`, the TGI in experiment [1], in experiment [2], in experiment [3], in experiment [6] and in experiment [5] was above 100 µM in each case.

In the case of `CC(/C(=N/NC(=O)C(N)=O)c1c(Cl)ccc(Cl)c1O)C1(O)C(=O)Nc2ccccc21` (stereo not drawn), the TGI in [1] was above 100 µM; in [2] it was 75.8 µM; in experiment [3] it was above 100 µM; in experiment [4], above 100 µM; in experiment [6], above 100 µM; in [5] it was above 100 µM.

`COCC1N=C(c2cc(OC)c(OC)c(OC)c2-c2cc3c(cc2C2OCCCO2)OCO3)O[C@H]1c1ccccc1` (stereo partly drawn): the TGI in experiment [1], in experiment [2], in [3], in [4], in [6] and in [5] was above 100 µM in each case.

Consider `O=C(/C=C/c1ccc(Cl)c(Cl)c1)c1ccc(F)cc1`, for which the TGI was 28.8 µM in experiment [1]; 20.5 µM in experiment [2]; 35.2 µM in [4]; 26.9 µM in experiment [6]; 27.8 µM in [5].

As for `CS(=O)(=O)OCCn1cnc2nc(NC(=O)c3ccccc3)[nH]c(=O)c21`, the TGI in experiment [1], in experiment [2], in [3], in experiment [4], in [6] and in [5] was above 100 µM each time.

In the case of `Fc1cccc2cc3ccc4cccc5ccc(c12)c3c45`, the TGI in experiment [1], in experiment [2], in experiment [3], in [4], in [6] and in experiment [5] was above 100 µM each time.

With `C=C1C(=O)OC2C1CC[C@H](C)C13OC(=O)CC1[C@@]23C` (stereo partly drawn), the TGI in experiment [1], in [2], in [3], in [6] and in [5] was above 100 µM each time.

Consider `CCC(CC)n1cc(C(=O)NC(=O)NCCCCCOC(=O)CCCCCCCCCCC(=O)OCCCCCNC(=O)NC(=O)c2cn(C(CC)CC)c(=O)[nH]c2=O)c(=O)[nH]c1=O`, for which the TGI in experiment [1], in experiment [2], in experiment [3], in experiment [4], in experiment [6] and in experiment [5] was above 100 µM each time.

For `O=C1OC(CC(=O)c2ccc(Cl)cc2Cl)C(Cl)=C1Cl` (stereo not drawn), the TGI is 40 µM in [1]; above 72.7 µM in experiment [2]; 36.3 µM in [3]; 42 µM in [4]; above 100 µM in [6]; 54.5 µM in experiment [5].

Turning to `CC1=C(C(=O)Nc2cccc(Cl)c2)C(c2ccc([N+](=O)[O-])cc2)C(C(=O)Nc2cccc(Cl)c2)=C(C)N1`, the TGI in experiment [1] was 37.2 µM; in experiment [2] it was above 100 µM; in [3] it was 58.7 µM; in experiment [4], 54.4 µM; in experiment [5] it was above 100 µM.

On to `CN(C)CCNC(=O)c1ccc(C(=O)NCCN(C)C)c2nc3ccccc3cc12`, for which the TGI turned out to be 2.38 µM in experiment [1]; 10.2 µM in experiment [2]; 2.09 µM in experiment [3]; 10.3 µM in [4]; 4.76 µM in experiment [6]; 5.28 µM in [5].

For the compound `C=CCN(N=O)C(=O)N(CCCC(NC(C)=O)C(=O)NCc1ccccc1)Cc1ccccc1` (stereo not drawn), the TGI was above 100 µM in experiment [1]; 95.6 µM in experiment [2]; above 100 µM in experiment [3]; above 100 µM in [4]; above 100 µM in experiment [6].

Take `Cc1cccc(NC(=O)c2cc3cc(N=Nc4ccccc4Cl)ccc3oc2=O)c1`: the TGI was 42.5 µM in experiment [1]; above 100 µM in [2]; 83.2 µM in [3]; above 100 µM in experiment [4]; above 100 µM in [6]; above 100 µM in [5].

On to `C[C@]12CC[C@@H]3c4ccc(O)cc4CC[C@H]3[C@@H]1CC[C@@H]2NS(=O)(=O)c1cccc(C(F)(F)F)c1`, for which the GI50 was 2.66 µM in [1]; 3.46 µM in experiment [2]; 2.58 µM in [3]; 3.24 µM in experiment [8]; 2.78 µM in experiment [7]; 3.73 µM in [9]. For the same compound, the GI50 in experiment [10] is 2.7 µM. Also, the TGI in [1] came out at 10.7 µM; in [2] it was 24.1 µM; in experiment [3], 6.65 µM; in experiment [8], 15.6 µM; in experiment [7], 13.9 µM; in experiment [9], 16.9 µM. In addition, the TGI in experiment [10] was 7.48 µM.

Turning to `Cc1nc2sc(C(=O)Nc3cccc4ccccc34)c(N)c2cc1C(=O)/C=C/c1ccccc1`, the GI50 in [1] was 0.235 µM; in experiment [2], 0.178 µM; in experiment [3], 0.203 µM; in experiment [8], 0.281 µM; in experiment [7] it was 0.282 µM; in [9], 0.173 µM. In addition, the GI50 in experiment [10] is 0.413 µM. Moreover, the TGI in [1] is 3.8 µM; in experiment [2] it was above 24.9 µM; in experiment [3], 0.776 µM; in experiment [8], above 50 µM; in experiment [7] it was 4.48 µM; in experiment [9], 0.593 µM. For the same compound, the TGI in [10] was 1.92 µM.

As for `Cn1c(=O)c(Oc2ccc(F)cc2F)cc2cnc(NC(CO)CO)nc21`, the GI50 in [1], in [2], in experiment [3], in [8], in [7] and in [9] was above 25 µM each time. For the same compound, the GI50 in experiment [10] is above 25 µM. Further, the TGI in experiment [1], in [2], in [3], in experiment [8], in [7] and in [9] was above 25 µM each time. In addition, in experiment [10], the TGI was above 25 µM.

Take `COc1ccc(C(Cc2cc(OC)c(OC)c(OC)c2)C(=O)O)cc1` (stereo not drawn): the TGI in experiment [1], in experiment [2], in [4], in experiment [6] and in experiment [5] was above 100 µM throughout.
